Several values for one entry are separate records, joined by “and”; a condition that tells them apart may be missing. Equal values may be shown once. Read-outs that look alike come from different tables or passages of the source.

Data set [1] has as its system Huh-7 cells carrying an HCV genotype 1a replicon. To be noted: with 320 nM Compound 10 and the highest concentration of the listed compound.
Data set [2] has as its system Huh-7 cells carrying a HCV genotype 1a replicon. The experiment in a line: Cytotoxicity combination studies with Compound 4, MacSynergy II.
Data set [3] relates to HCV 1b replicon system (Huh-luc). The data set can be described thus: Antiviral combination studies with Compound 6, MacSynergy II.
The test system of data set [4] is HCV genotype 1a replicon. The experiment in a line: HCV genotype 1a replicon assay, EC50 (Biological Example 8). To be noted: Hepatitis C virus, 72 h.
Data set [5] can be described thus: HCV genotype 1a replicon assay, CC50 by calcein AM (Biological Example 3). It is filed as cell-based. To be noted: human, Huh-7 cells carrying a HCV genotype 1a replicon, genotype 1a replicon cells. The method, then: The CC50 assay was performed first.
Data set [6] has as its system HCV genotype 1a replicon. The data set can be described thus: Antiviral combination studies with Compound 4, MacSynergy II. To be noted: in combination with Compound 4, mean ± standard deviation.
Data set [7] can be described thus: HCV genotype 1a replicon assay, CC50 by calcein AM (Biological Example 8). To be noted: human, Huh-7 cells carrying an HCV genotype 1a replicon.
The next data set relates to genotype 1b replicon RNA. The experiment in a line: Replicon RNA suppression, 6 day assay, QRT-PCR.
The test system of data set [8] is HCV genotype 1a replicon. The data set can be described thus: HCV genotype 1a replicon assay, EC50 (Biological Example 3). The format is cell-based. To be noted: Hepatitis C virus, 72 h, 3 days, average ± standard deviation, read-out: EC50. In general terms: A replicon is a self-replicating genome or part of one, used to study replication in cells.
Data set [9] relates to HCV genotype 1a replicon. The data set can be described thus: Antiviral combination studies with Compound 10, MacSynergy II. To be noted: in combination with Compound 10.
The test system of data set [10] is Genotype 1 b replicon cells. The data set can be described thus: Compound combination replicon cure assay, colony formation. To be noted: 6 days treatment at the same concentrations, then G418 for 14 days.
Data set [11] deals with 1b Huh-luc replicon cells. The experiment in a line: Antiviral combination studies with Compound 5, MacSynergy II. The format is cell-based, HCV. The method, then: Combination data were analyzed based on the Bliss Independence model using MacSynergy II software. Results of the combination assays were expressed as mean synergy and antagonism volumes (nM^2) calculated at 95% confidence from two independent experiments performed in triplicate.

The test system of data set [12] is GT2b NS5B S282T mutant chimeric replicon. The data set can be described thus: microbe, parasite or virus in culture. It is filed as cell-based, HCV.
Data set [13] relates to Genotype 1a replicon, NS5A L31M.
Data set [14] relates to Genotype 1a replicon, NS5A Q30E.
In data set [15] the test system is NS5B S282T mutant replicons. The experiment in a line: microbe, parasite or virus in culture. The format is cell-based, HCV. To be noted: Hepatitis C virus, read-out: EC50 values for S282T across all five genotypes.
Data set [16] relates to Genotype 1a replicon, NS5A Q30R.
The subject of another data set is GT1b wild-type replicon. The experiment in a line: microbe, parasite or virus in culture. The format is cell-based, HCV. To be noted: Hepatitis C virus, 72 h, 3 days.
The test system of data set [17] is GT2b wild-type chimeric replicon (2b NS5B in GT1b backbone). The experiment in a line: microbe, parasite or virus in culture. It is filed as cell-based, HCV. To be noted: Hepatitis C virus, 72 h, read-out: EC50 WT.
Data set [18] deals with GT3a NS5B S282T mutant chimeric replicon. The experiment in a line: microbe, parasite or virus in culture. The format is cell-based, HCV.
Data set [19] relates to GT3a wild-type chimeric replicon (3a NS5B in GT1b backbone). The data set can be described thus: microbe, parasite or virus in culture. It is filed as cell-based, HCV. As to conditions: Hepatitis C virus, 72 h, read-out: EC50 WT.
For data set [20], the system named is panel of NS5A mutant replicons. The data set can be described thus: Transient replicon assay, panel of NS5A mutant replicons. To be noted: seven NS5A mutants, genotype 1a. The format is cell-based, HCV. From the text:
NS5A mutant replicons were created by synthesizing a sequence encoding the first 149 amino acids of NS5A containing the desired mutation flanked by a 5′ and 3′ BsrGI and EcoRI site, respectively (Genscript, Piscataway, N.J.). Synthesized fragments were then cloned by standard molecular biology techniques into a 1a Rluc replicon plasmid modified to enable cloning into unique BsrGI and EcoRI restriction sites. Mutations were confirmed by DNA sequencing.
RNA was transfected into Huh-lunet cells using the method of Lohmann et al. (Lohmann et al., Science 1999; 285 (5424):110-3) Briefly, cells were trypsinized and washed twice with PBS. A suspension of 4×10^6 cells in 400 μL of PBS were mixed with 5 μg of RNA and subjected to electroporation using settings of 960 μF and 270 V. Cells were transferred into 40 mL of pre-warmed culture medium and then seeded into 96-well or 384-well plates. Compounds were 3-fold serially diluted in 100% DMSO and added to cells to achieve a final DMSO concentration of 0.5%. Cells were treated for three days after which culture media were removed, cells were lysed, and Renilla luciferase activity was quantified using commercially available reagents (Promega) and a Victor or Envision instrument (Perkin Elmer, Waltham, Mass.).
Resistance fold changes were calculated as the ratio of mutant to wild-type replicon EC50. […]

Data set [21] deals with Genotype 1a replicon, NS5A M28T.
In data set [22] the test system is GT2a NS5B S282T mutant replicon. The experiment in a line: microbe, parasite or virus in culture. The format is cell-based, HCV.
In data set [23] the test system is GT1b NS5B S282T mutant replicon. The data set can be described thus: microbe, parasite or virus in culture. The format is cell-based, HCV.
Data set [24] deals with Genotype 1a replicon, NS5A Y93H.
The subject of data set [25] is GT4a wild-type chimeric replicon (4a NS5B in GT1b backbone). The data set can be described thus: microbe, parasite or virus in culture. It is filed as cell-based, HCV. As to conditions: Hepatitis C virus, 72 h, read-out: EC50 WT.
For data set [26], the system named is Genotype 1a replicon, NS5A Q30H.
Data set [27] relates to GT4a NS5B S282T mutant chimeric replicon. The data set can be described thus: microbe, parasite or virus in culture. It is filed as cell-based, HCV.
Another data set deals with GT2a wild-type replicon. The data set can be described thus: microbe, parasite or virus in culture. The format is cell-based, HCV. To be noted: Hepatitis C virus, 72 h, 3 days.
Where [28] appears, read: in combination with Compound 4, mean ± standard deviation.
Setting [29] is: in combination with Compound 6, mean ± standard deviation.
Where [30] appears, read: in combination with Compound 5, mean ± standard deviation.

With `CC[C@@H]1C[C@]1(NC(=O)[C@@H]1C[C@@H](Oc2cc(-c3csc(NC(C)C)n3)nc3c(Cl)c(OCCN4CCOCC4)ccc23)CN1C(=O)[C@@H](NC(=O)O[C@@H]1C[C@@H]2C[C@@H]2C1)C(C)(C)C)C(=O)O` [Compound 3], the “Cytotoxicity at Highest Concentration of Compound Combinations (% inhibition on cell growth)” value in [1] was found to be 2.0 ± 3.5%. Further, in data set [2] (in combination with Compound 4), the “Interaction (cytotoxicity)” value is “Additivity (Additivity: ≤25 and >−25 nM^2%)”. Also, the “Antagonism Volume (cytotoxicity)” value in data set [2] (setting [28]) was found to be 0 ± 0 nM^2%. Moreover, the “Synergy Volume (cytotoxicity)” value in data set [2] (setting [28]) came out at 3 ± 5 nM^2%. Further, the Interaction entry was “Strong Synergy” in [3] (in combination with Compound 6), “Additive” with HCV genotype 1a replicon [9] and “Additive” in [11] (in combination with Compound 5). For the same molecule, the “Antagonism Volume” value in [3] (setting [29]) is −0.1 ± 0.2 nM^2; with HCV genotype 1a replicon [6], −3 ± 2 nM^2%; in [11] (setting [30]), −2 ± 2 nM^2. Also, the “Synergy Volume” value was 132 nM^2 and 132 ± 44 nM^2 in data set [3] (setting [29]); 26 ± 6 nM^2% in the data set with HCV genotype 1a replicon [6]; 19 ± 13 nM^2 in data set [11] (setting [30]). Further, the concentration for a half-maximal effect (EC50) (commonly the concentration needed to bring the measured effect to its halfway point) in the data set with HCV genotype 1a replicon [4] was determined as 46 nM; in the data set with HCV genotype 1a replicon [8] it was 49 ± 18 nM. Further, the half-maximal cytotoxic concentration (CC50) at 3 days in [5] and in [7] was above 22.2 µM in each case. The “Replicon RNA log drop” value with genotype 1b replicon RNA is listed as −0.9 log; in the data set with genotype 1b replicon RNA (single compound at the listed concentration, 6 days, relative to DMSO control (Table XIV)), −0.9 log. In the data set with genotype 1b replicon RNA (genotype 1b replicon cells, 6 days), the “Compound concentration able to induce replicon RNA 1-1.5 log drop in a 6 day assay” value came to 26.25 nM. Further, the Uncured colony number in data set [10] came to 989.
`CC(C)OC(=O)[C@H](C)N[P@](=O)(OC[C@H]1O[C@@H](n2ccc(=O)[nH]c2=O)[C@](C)(F)[C@@H]1O)Oc1ccccc1` [Compound 10]: the Fold change came out at 16.2 in [12] (GT2b, S282T EC50 versus corresponding wild type); 3.5 in data set [18] (GT3a, S282T EC50 versus corresponding wild type); 2.4 in [22] (GT2a, S282T EC50 versus corresponding wild type); 8.8 in data set [23] (GT1b, S282T EC50 versus corresponding wild type); 6.1 in data set [27] (GT4a, S282T EC50 versus corresponding wild type). Moreover, the concentration for a half-maximal effect (EC50) in data set [12] (Hepatitis C virus, GT2B, 72 h, read-out: EC50 S282T) is 216 nM; in [15] it was 117 to 346 nM; in the data set on HCV genotype 1a replicon [4] it was 39 nM; in the data set with GT1b wild-type replicon, 21.5 nM; in data set [17], 13.3 nM; in data set [18] (Hepatitis C virus, GT3A, 72 h, read-out: EC50 S282T) it was 117 nM. Also, the half-maximal effective concentration (EC50) in data set [19] is 33.9 nM; in data set [22] (Hepatitis C virus, GT2A, 72 h, read-out: EC50 S282T) it was 346 nM; in data set [23] (Hepatitis C virus, GT1B, 72 h, read-out: EC50 S282T), 189 nM; in data set [25], 35.8 nM; in data set [27] (Hepatitis C virus, GT4A, 72 h, read-out: EC50 S282T) it was 218 nM; with GT2a wild-type replicon, 147 nM. For the same molecule, the “Fold Shift in EC50 (DRM EC50/1a-H77 EC50)” value stood at 1.1 in [13]; 1.0 in data set [14]; 0.8 in data set [16]; 0.9 in [21]; 0.7 in [24]; 1.0 in [26]. The cytotoxic concentration (CC50) (as a rule, the concentration that lowers cell viability or growth by half) at 3 days in data set [7] is above 82.4 µM. In addition, in data set [20], the “increase (shift) in EC50 for NS5A mutants” value was “no significant shift”.

Source of the values: US10456414B2, “Methods for treating HCV” (priority 2011, dated 2019).
